The subject of this assay is male rhesus monkeys (Macaca mulatta). Description: Cocaine discrimination testing (Study 1), pretreatment protocol. In kind it is in vivo. The conditions noted are these: cocaine alone. The procedure:
Subjects: The subjects are four male rhesus monkeys (Macaca mulatta), weighing 5.7-8.1 kg and maintained on a diet of 3-4 monkey biscuits and one piece of fresh fruit per day. During the week, all food is delivered after the experimental session, whereas at weekends, food is delivered between 9 a.m. and noon. Water is freely available at all times. The monkeys are housed in a humidity and temperature controlled room with a 12 h light-dark cycle (lights on from 7 a.m. to 7 p.m.). Apparatus: Each monkey is housed individually in a well-ventilated, stainless steel chamber (56×71×69 cm) which includes an operant panel (28×28 cm) mounted on the front wall. Three response keys are arranged in a horizontal row 3.2 cm from the top of the operant panel. Each key can be transilluminated by red or green stimulus lights (Superbright LEDs). An externally mounted pellet dispenser delivers 1 g fruit-flavoured food pellets to a food receptacle beneath the operant response panel. A computer, located in a separate room, controls the operant panels and data collection. […]
During each response period, 3 dependent variables are determined: • 1) Percent injection-appropriate responding prior to delivery of the first reinforcer. • 2) Percent injection-appropriate responding for the entire response period • 3) Response Rate.
Monkeys meeting the following criteria during the training day immediately proceeding the test day and in at least 6 of 7 consecutive training sessions before this are used for discrimination testing: • 1) the percent injection-appropriate responding prior to delivery of the first reinforcer is ≧80% for all cycles; • 2) the percent injection-appropriate responding for the entire cycle is ≧90% for all cycles; • 3) Response rates during saline training cycles are >0.5 responses per second. […] In this protocol, a cumulative dose-effect curve for cocaine (0.013-1.3 mg/kg) is determined either alone or following pretreatment with the test compound, which is administered 20 min before the first dose of cocaine. […]

Take `COC(=O)[C@H]1[C@@H](OC(=O)c2ccccc2)C[C@@H]2CC[C@H]1N2C.Cl` [cocaine, Cocaine hydrochloride]: the response rates entry (1.3 mg/kg) was “usually decreases response rates”. The cocaine-appropriate responding entry (cumulative 0.013-1.3 mg/kg, all four monkeys) was “dose-dependent increase in cocaine-appropriate responding”. The “substitution for training stimulus” value (training dose 0.4 mg/kg, all monkeys) is given as “Complete substitution”.

These data come from US7407990B2, “Therapeutic Agents” (Knoll GmbH, priority 1999, dated 2008).
